Experiment [1] concerns human PCSK9. In words: Cell Free PCSK9 Assay (PCSK9-luciferase mRNA translation in HeLa lysate). Format: biochemical. The conditions noted are these: PCSK9-luciferase RNA, 30° C. for 45 minutes, top concentration 100 μM. As for the experimental part: As defined herein inhibition of translation of PCSK9 mRNA to PCSK9 protein is determined by the “Cell Free PCSK9 Assay” provided herein in the specification. This “Cell Free PCSK9 Assay” is specific to the production of PCSK9 protein from PCSK9 mRNA and therefore detects inhibitors of this translational process rather than other mechanisms by which PCSK9 protein may be reduced.
In order to eliminate the permeability barrier inherent to the WT7 cell-based assays a cell-free system was also established to assess compound activitiy. A sequence containing the full length human PCSK9 (NCBI reference identifier, NM_174936.3, where coding sequence start annotated at position 363) along with 84 additional 3′ nucleotides, comprising a V5 tag and polylinker followed by an in frame modified firefly luciferase reporter (corresponding to nucleotide positions 283-1929 of pGL3, GenBank reference identifier JN542721.1) was cloned into the pT7CFE1 expression vector (ThermoScientific). The construct was then in-vitro transcribed using the MEGAscript T7 Kit (Life Technologies) and RNA subsequently purified incorporating the MEGAclear Kit (Life Technologies) according to manufacturer's protocols. HeLa cell lysates were prepared following the protocols described by Mikami (reference is Cell-Free Protein Synthesis Systems with Extracts from Cultured Human Cells, S. Mikami, T. Kobayashi and H. Imataka; from Methods in Molecular Biology, vol. 607, pages 43-52, Y. Endo et al. (eds.), Humana Press, 2010) with the following modifications. Cells were grown in a 20 L volume of CD293 medium (Gibco 11765-054) with Glutamax increased to 4 mM, penicillin at 100 U/mL and other additions as previously described by Mikami. Growth was in a 50 L wavebag at a rocker speed of 25 rpm and angle 6.1 with 5% CO2 and 0.2 LPM flow rate with cells harvested at a density of 2-2.5e6/mL. Lysates additionally contained 1 tablet of Roche cOmplete-EDTA protease inhibitors per 50 mL with tris(2-carboxyethyl)phosphine (Biovectra) substituted for dithiothreitol, and were clarified by an additional final centrifugation at 10,000 rpm in a Sorvall SS34 rotor at 4° C. for 10 minutes. Compound screening was performed in 384-well plates in an eleven point, 0.5 log dilution format at a top test compound concentration of 100 μM in a final volume of 0.5% DMSO. In additional to these test compound conditions each screening plate also included wells that contained 100 μM of compound example 16 (as depicted in WO2014170786; N-(3-chloropyridin-2-yl)-N-[(3R)-piperidin-3-yl]-4-(3H-[1,2,3]triazolo[4,5-b]pyridin-3-yl)benzamide) as a positive assay control defined as high percent effect, HPE, as well as wells containing media in 0.5% DMSO as a negative treatment control defined as zero percent effect, ZPE. Compounds were incubated at 30° C. for 45 minutes in a solution containing 0.1 μg of purified, in-vitro transcribed RNA together with the cell-free reaction mixture (consisting of 1.6 mM Mg and 112 mM K salts, 4.6 mM tris(2-carboxyethyl)phosphine (Biovectra), 5.0 μL HeLa lysate, 0.2 μL RNAsin (Promega) and 1.0 μL energy mix (containing 1.25 mM ATP (Sigma), 0.12 mM GTP (Sigma), 20 mM creatine phosphate (Santa Cruz), 60 μg/mL creatine phosphokinase (Sigma), 90 μg/mL tRNA (Sigma) and the 20 amino acids (Life Technologies) at final concentrations described by Mikami) and brought up in water to a final volume of 10 μL in water. Upon assay completion 1 μL from each reaction solution was removed and transferred to a second 384-well Optiplate (Perkin Elmer) containing 24 μL of SteadyGlo (Promega) and signal intensity was measured on the Envision (Perkin Elmer) using the enhanced luminescence protocol. To determine compound IC50 the data for HPE and ZPE control wells were first analyzed and the mean, standard deviation and Z prime calculated for each plate. The test compound data were converted into percent effect, using the ZPE and HPE controls as 0% and 100% activity, respectively, applying Equation 1 above. […]

The subject of experiment [2] is human PCSK9. In words: PCSK9 AlphaLISA assay, PCSK9 lowering in WT7 cells. The conditions noted are these: WT7 cells (Huh7 stably over-expressing human PCSK9), secreted PCSK9 by AlphaLISA, overnight incubation (16-24 h), top concentration 20 μM; read-out: Cell Based PCSK9 IC50. An excerpt:
PCSK9 Lowering in WT7 Cells
An in-vitro AlphaLISA assay (Perkin Elmer) was developed in order to quantitate the level of PCSK9 secreted into the cell culture media following compound treatment. To detect and measure PCSK9 protein a mouse monoclonal anti-human PCSK9 antibody was coupled to AlphaLISA acceptor beads by an external vendor (Perkin Elmer) and a second rabbit monoclonal anti-human PCSK9 antibody with an epitope distinct from that of the acceptor beads was biotinylated using the EZ link NHS-LC-LC-Biotin kit (Life Technologies #21338). Streptavidin coated-donor beads (Perkin Elmer) are also included in the assay mixture which then binds the biotinylated anti-PCSK9 antibody and in the presence of PCSK9 this donor complex and acceptor beads are brought into close proximity. Upon excitation of the donor beads at 680 nm singlet oxygen molecules are released that trigger an energy transfer cascade within the acceptor beads resolving as a single peak of light emitted at 615 nm. The ability of compound to modulate PCSK9 protein levels in conditioned media by AlphaLISA was assessed in the human hepatocellular carcinoma cell line Huh7, stably over-expressing human PCSK9. This cell line, termed WT7, was established by transfecting Huh7 cells with an in-house modified pcDNA 3.1 (+) Zeo expression vector (Life Technologies) containing the full-length human PCSK9 sequence (NCBI reference identifier, NM_174936.3, where coding sequence start annotated at position 363) and a c-terminal V5 and 6×-His tag. Following plasmid transfection the stable WT7 clone was identified and maintained under Zeocin selection. Compound screening was performed in 384-well plates where WT7 cells were plated at a density of 7500 cells per well in 20 μL of tissue culture media containing compound in an eleven point, 0.5 log dilution format at a high treatment concentration of 20 μM in a final volume of 0.5% DMSO. In additional to these test compound conditions each screening plate also included wells that contained 20 μM puromycin as a positive assay control defined as high percent effect, HPE, as well as wells containing media in 0.5% DMSO as a negative treatment control defined as zero percent effect, ZPE. After overnight compound incubation (16-24 h) the tissue culture media was collected and an aliquot from each sample was transferred to individual wells of a 384-well white Optiplate (Perkin Elmer). The coupled antibodies and donor beads were added to the assay plates in a buffer composed of 30 mM Tris pH 7.4, 0.02% Tween-20 and 0.02% Casein. Anti-PCSK9 acceptor beads (final concentration of 10 μg/mL) and anti-PCSK9 biotinylated antibody (final concentration of 3 nM) were added and incubated for 30 minutes at room temperature followed by the addition of the streptavidin donor beads (final concentration 40 μg/mL) for an additional 60 minutes. Additionally a standard curve was generated where AlphaLISA reagents were incubated in wells spiked with recombinant human PCSK9 diluted in tissue culture media from 5000 ng/mL to 0.6 ng/mL. Following incubation with AlphaLISA reagents plates were read on an EnVision (Perkin Elmer) plate reader at an excitation wavelength of […] and emission/detection wavelength of […]. To determine compound IC50 the data for HPEand ZPEcontrol wells were first analyzed and the mean, standard deviation and Z prime calculated for each plate. The test compound data were converted into percent effect, using the ZPE and HPE controls as 0% and 100% activity, respectively. The equation used for converting each well reading into percent effect was:
IC50 was then calculated and reported as the midpoint in the percent effect curve in molar units and the values are reported under the Cell Based PCSK9 IC50 (μM) column header within Table 2 Biological Data. […]

In US20160102074A1, “SUBSTITUTED AMIDE COMPOUNDS” (PFIZER INC., priority 2014, published 2016) one finds IC50 data, which are given here for 4 compounds.

For `Cc1cccnc1N(C(=O)c1ccc(-c2cnn(C)c2-c2nn[nH]n2)cn1)[C@@H]1CCCNC1` [Example 1, N-(3-methylpyridin-2-yl)-5-[1-methyl-5-(2H-tetrazol-5-yl)-1H-pyrazol-4-yl]-N-[(3R)-piperidin-3-yl]pyridine-2-carboxamide], the IC50 in experiment [1] was 5.8 µM; in experiment [2], > 20 µM.

`Cn1ncc(-c2ccc(C(=O)N(c3ncccc3Cl)[C@@H]3CCCNC3)nc2)c1-c1nn[nH]n1` [Example 2, N-(3-chloropyridin-2-yl)-5-[1-methyl-5-(2H-tetrazol-5-yl)-1H-pyrazol-4-yl]-N-[(3R)-piperidin-3-yl]pyridine-2-carboxamide]: the IC50 in experiment [1] is 10.5 µM; in experiment [2], > 20 µM.

For the compound `Cc1cccnc1N(C(=O)c1ccc(-c2cnn(C)c2-c2nn[nH]n2)c(F)c1)[C@@H]1CCCNC1` [Example 4, N-(3-methylpyridin-2-yl)-3-fluoro-4-[1-methyl-5-(2H-tetrazol-5-yl)-1H-pyrazol-4-yl]-N-[(3R)-piperidin-3-yl]benzamide], the IC50 was 15.3 µM in experiment [1] and > 20 µM in experiment [2].

Regarding `CCOC(=O)O[C@H](C)n1nnnc1-c1c(-c2ccc(C(=O)N(c3ncccc3Cl)[C@@H]3CCCNC3)cc2)cnn1C` [Example 12, ethyl (R)-1-{5-[1-methyl-4-(4-{(3-chloropyridin-2-yl)[(3R)-piperidin-3-yl]carbamoyl}phenyl)-1H-pyrazol-5-yl]-1H-tetrazol-1-yl}ethyl carbonate], the results for the IC50 in experiment [1] and in experiment [2] were 15.4 µM and 17.3 µM, respectively.
